Test results: patent publication US20230103791A1 (GLAXOSMITHKLINE INTELLECTUAL PROPERTY DEVELOPMENT LIMITED, priority 2019, published 2023)

Biological target: T1, human Nav1.8 (Homo sapiens, UniProt Q9Y5Y9)
T1 construct: expressed in transfected cells; host or cells: HEK293 (HEK293-Nav1.8)
Experiment: Nav1.8 sodium channels assay, QPatch 48 HTX electrophysiology in HEK293-Nav1.8 cells
Format: cell-based
Conditions: at least one set of experimental runs; read-out: average pIC50 value against Nav1.8 (converted)
Summary of the method: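 IC50 came from 6-8 point curves of P2 current amplitude, normalized to baseline and a positive reference, and corrected for run-down using vehicle-only wells. Automated patch clamp used HEK293-Nav1.8 (with Navβ1 and TREK1) at pH 7.4 outside and CsF-based solution inside. An 8 s inactivating step at −46 mV preceded the 0 mV test pulse, repeated at 0.07 Hz.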

T1 sequence (Q9Y5Y9 whole entry): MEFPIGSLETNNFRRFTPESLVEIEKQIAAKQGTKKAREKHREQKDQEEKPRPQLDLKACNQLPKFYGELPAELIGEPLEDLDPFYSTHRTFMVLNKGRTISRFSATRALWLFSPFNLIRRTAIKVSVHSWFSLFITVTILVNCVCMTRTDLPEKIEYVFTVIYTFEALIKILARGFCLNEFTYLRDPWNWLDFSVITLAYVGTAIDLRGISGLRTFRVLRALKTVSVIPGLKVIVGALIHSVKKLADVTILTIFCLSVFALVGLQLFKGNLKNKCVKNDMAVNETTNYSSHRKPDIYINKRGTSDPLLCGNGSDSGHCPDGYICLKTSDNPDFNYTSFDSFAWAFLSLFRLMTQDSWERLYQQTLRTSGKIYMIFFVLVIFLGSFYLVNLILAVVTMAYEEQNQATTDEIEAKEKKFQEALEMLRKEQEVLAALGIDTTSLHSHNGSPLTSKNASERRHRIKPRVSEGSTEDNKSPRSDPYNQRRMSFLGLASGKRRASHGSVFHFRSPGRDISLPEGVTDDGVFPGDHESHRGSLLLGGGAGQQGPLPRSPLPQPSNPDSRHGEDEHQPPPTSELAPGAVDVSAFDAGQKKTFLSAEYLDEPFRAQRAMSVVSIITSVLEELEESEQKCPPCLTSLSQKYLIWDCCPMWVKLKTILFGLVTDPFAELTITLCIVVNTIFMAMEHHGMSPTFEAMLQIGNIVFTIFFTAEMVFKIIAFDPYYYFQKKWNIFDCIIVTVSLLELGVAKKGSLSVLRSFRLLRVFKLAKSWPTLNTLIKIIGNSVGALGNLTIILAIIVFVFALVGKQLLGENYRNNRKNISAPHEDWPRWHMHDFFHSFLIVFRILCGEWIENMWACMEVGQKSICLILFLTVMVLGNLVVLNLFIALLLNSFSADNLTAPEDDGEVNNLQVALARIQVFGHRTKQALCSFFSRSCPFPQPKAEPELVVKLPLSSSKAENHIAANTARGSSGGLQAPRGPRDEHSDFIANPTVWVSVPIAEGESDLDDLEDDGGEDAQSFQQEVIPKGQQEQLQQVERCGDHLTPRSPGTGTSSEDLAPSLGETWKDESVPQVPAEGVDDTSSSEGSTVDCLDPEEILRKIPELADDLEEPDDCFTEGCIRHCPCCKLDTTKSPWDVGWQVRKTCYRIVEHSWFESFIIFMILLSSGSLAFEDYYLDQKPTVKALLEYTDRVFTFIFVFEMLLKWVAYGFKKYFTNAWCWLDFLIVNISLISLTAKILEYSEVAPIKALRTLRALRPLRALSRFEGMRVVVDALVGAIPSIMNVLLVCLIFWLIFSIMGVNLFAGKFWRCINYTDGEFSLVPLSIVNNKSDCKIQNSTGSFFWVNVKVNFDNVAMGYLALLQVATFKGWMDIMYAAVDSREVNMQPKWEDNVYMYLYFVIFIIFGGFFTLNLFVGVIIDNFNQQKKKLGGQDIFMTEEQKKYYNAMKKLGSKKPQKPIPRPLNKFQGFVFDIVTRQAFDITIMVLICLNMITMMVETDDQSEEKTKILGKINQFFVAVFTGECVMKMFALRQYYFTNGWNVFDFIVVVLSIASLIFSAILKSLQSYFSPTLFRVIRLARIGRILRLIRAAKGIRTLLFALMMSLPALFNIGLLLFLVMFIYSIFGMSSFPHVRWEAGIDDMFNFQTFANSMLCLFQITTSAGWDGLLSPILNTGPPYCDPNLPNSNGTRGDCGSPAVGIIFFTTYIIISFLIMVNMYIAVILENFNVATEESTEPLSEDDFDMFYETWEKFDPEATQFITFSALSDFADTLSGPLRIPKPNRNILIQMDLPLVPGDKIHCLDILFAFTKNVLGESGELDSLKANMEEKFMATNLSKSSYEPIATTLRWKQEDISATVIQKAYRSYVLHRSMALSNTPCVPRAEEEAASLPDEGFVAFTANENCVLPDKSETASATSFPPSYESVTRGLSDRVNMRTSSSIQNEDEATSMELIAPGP
T1 sequence (Q07699 19-218 partner): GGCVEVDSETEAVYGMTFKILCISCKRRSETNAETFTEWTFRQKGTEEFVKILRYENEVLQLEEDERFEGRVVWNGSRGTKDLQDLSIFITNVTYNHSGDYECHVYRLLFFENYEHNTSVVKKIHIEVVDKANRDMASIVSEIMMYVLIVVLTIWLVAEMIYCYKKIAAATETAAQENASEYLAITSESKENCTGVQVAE

SMILES | IC50
CCc1[nH]c(=O)ccc1N1CN(c2ccc(F)cc2C)c2cc(C(F)(F)F)ccc2C1=O [Example 150, 3-(2-ethyl-6-oxo-1,6-dihydropyridin-3-yl)-1-(4-fluoro-2-methylphenyl)-7-(trifluoromethyl)-2,3-dihydroquinazolin-4(1H)-one] | ≤ 0.1 µM
Cc1cc(F)ccc1N1CN(c2ccc(=O)[nH]c2Cl)C(=O)c2ccc(C(F)(F)F)cc21 [Example 151, 3-(2-chloro-6-oxo-1,6-dihydropyridin-3-yl)-1-(4-fluoro-2-methylphenyl)-7-(trifluoromethyl)-2,3-dihydroquinazolin-4(1H)-one] | 0.794 to 7.94 µM
Cc1cc(F)ccc1N1CN(c2ccc(=O)[nH]c2C#N)C(=O)c2ccc(C(F)(F)F)cc21 [Example 154, 3-(1-(4-fluoro-2-methylphenyl)-4-oxo-7-(trifluoromethyl)-1,4-dihydroquinazolin-3(2H)-yl)-6-oxo-1,6-dihydropyridine-2-carbonitrile] | 0.126 to 0.631 µM
Cc1[nH]c(=O)ccc1N1CN(c2ccc(F)cc2F)c2cc(C(F)(F)F)ccc2C1=O [Example 155, 1-(2,4-difluorophenyl)-3-(2-methyl-6-oxo-1,6-dihydropyridin-3-yl)-7-(trifluoromethyl)-2,3-dihydroquinazolin-4(1H)-one] | 0.126 to 0.631 µM
CCOc1ccc(N2CN(c3ccc(=O)[nH]c3C)C(=O)c3ccc(C(F)(F)F)cc32)cc1 [Example 156, 1-(4-ethoxyphenyl)-3-(2-methyl-6-oxo-1,6-dihydropyridin-3-yl)-7-(trifluoromethyl)-2,3-dihydroquinazolin-4(1H)-one] | 0.126 to 0.631 µM
Cc1cc(F)ccc1N1CN(c2cc[nH]c(=O)c2)C(=O)c2ccc(C(F)(F)F)cc21 [Example 157, 1-(4-fluoro-2-methylphenyl)-3-(2-oxo-1,2-dihydropyridin-4-yl)-7-(trifluoromethyl)-2,3-dihydroquinazolin-4(1H)-one] | 0.126 to 0.631 µM
Cc1[nH]c(=O)ccc1N1CN(c2ccc(F)cc2C(C)C)c2cc(F)c(F)cc2C1=O [Example 159, 6,7-difluoro-1-(4-fluoro-2-isopropylphenyl)-3-(2-methyl-6-oxo-1,6-dihydropyridin-3-yl)-2,3-dihydroquinazolin-4(1H)-one] | ≤ 0.1 µM
Cc1[nH]c(=O)ccc1N1CN([C@H]2CCCC[C@H]2C)c2cc(C(F)(F)F)ccc2C1=O [Example 160, 3-(2-methyl-6-oxo-1,6-dihydropyridin-3-yl)-1-((1S,2R)-2-methylcyclohexyl)-7-(trifluoromethyl)-2,3-dihydroquinazolin-4(1H)-one] | ≤ 0.1 µM
Cc1[nH]c(=O)ccc1N1CN([C@@H]2CCCC[C@@H]2C)c2cc(C(F)(F)F)ccc2C1=O [Example 162, 3-(2-methyl-6-oxo-1,6-dihydropyridin-3-yl)-1-((1R,2S)-2-methylcyclohexyl)-7-(trifluoromethyl)-2,3-dihydroquinazolin-4(1H)-one] | ≤ 0.1 µM
CC(=O)Nc1[nH]c(=O)ccc1N1CN(c2ccc(F)cc2C)c2ccc(C(F)(F)F)cc2C1=O [Example 163, N-(3-(1-(4-fluoro-2-methylphenyl)-4-oxo-6-(trifluoromethyl)-1,4-dihydroquinazolin-3(2H)-yl)-6-oxo-1,6-dihydropyridin-2-yl)acetamide] | 0.794 to 7.94 µM
Cc1cc(F)ccc1N1CN(c2ccc(=O)[nH]c2Br)C(=O)c2cc(C(F)(F)F)ccc21 [Example 164, 3-(2-bromo-6-oxo-1,6-dihydropyridin-3-yl)-1-(4-fluoro-2-methylphenyl)-6-(trifluoromethyl)-2,3-dihydroquinazolin-4(1H)-one] | 0.126 to 0.631 µM
Cc1cc(F)ccc1N1CN(c2ccc(=O)[nH]c2C)C(=O)c2cc(C#N)c(C(F)(F)F)cc21 [Example 166, 1-(4-fluoro-2-methylphenyl)-3-(2-methyl-6-oxo-1,6-dihydropyridin-3-yl)-4-oxo-7-(trifluoromethyl)-1,2,3,4-tetra-hydroquinazoline-6-carbonitrile] | ≤ 0.1 µM
Cc1cc(F)ccc1N1CN(c2c[nH]c(=O)nc2N)C(=O)c2cc(C(F)(F)F)ccc21 [Example 169, 3-(4-amino-2-oxo-1,2-dihydropyrimidin-5-yl)-1-(4-fluoro-2-methylphenyl)-6-(trifluoromethyl)-2,3-dihydroquinazolin-4(1H)-one] | 0.126 to 0.631 µM
Cc1[nH]c(=O)ccc1N1CN(c2cccc(C(F)(F)F)c2C)c2ncc(C(F)(F)F)cc2C1=O [Example 174, 1-(2-methyl-3-(trifluoromethyl)phenyl)-3-(2-methyl-6-oxo-1,6-dihydropyridin-3-yl)-6-(trifluoromethyl)-2,3-dihydropyrido[2,3-d]pyrimidin-4(1H)-one] | 0.126 to 0.631 µM
Cc1[nH]c(=O)ccc1N1CN(c2ccc(F)c(F)c2C)c2ncc(C(F)(F)F)cc2C1=O [Example 177, 1-(3,4-difluoro-2-methylphenyl)-3-(2-methyl-6-oxo-1,6-dihydropyridin-3-yl)-6-(trifluoromethyl)-2,3-dihydropyrido[2,3-d]pyrimidin-4(1H)-one] | ≤ 0.1 µM
Cc1[nH]c(=O)ccc1N1CN(c2ccc(F)cc2C(C)C)c2ccc(C(F)(F)F)cc2C1=O [Example 178, 1-(4-fluoro-2-isopropylphenyl)-3-(2-methyl-6-oxo-1,6-dihydropyridin-3-yl)-6-(trifluoromethyl)-2,3-dihydroquinazolin-4(1H)-one] | ≤ 0.1 µM
Cc1cc(=O)[nH]cc1N1CN(c2ccc(F)cc2C)c2ccc(C(F)(F)F)cc2C1=O [Example 179, 1-(4-fluoro-2-methylphenyl)-3-(4-methyl-6-oxo-1,6-dihydropyridin-3-yl)-6-(trifluoromethyl)-2,3-dihydroquinazolin-4(1H)-one] | 0.126 to 0.631 µM

Continued, values first:

IC50 | SMILES
≤ 0.1 µM | Cc1cc(F)ccc1N1CN(c2ccc(=O)[nH]c2C)C(=O)c2ccc(Br)cc21 [Example 152, 7-bromo-1-(4-fluoro-2-methylphenyl)-3-(2-methyl-6-oxo-1,6-dihydropyridin-3-yl)-2,3-dihydroquinazolin-4(1H)-one]
≤ 0.1 µM | Cc1cc(F)ccc1N1CN(c2ccc(=O)[nH]c2C)C(=O)c2ccc(C#N)cc21 [Example 153, 1-(4-fluoro-2-methylphenyl)-3-(2-methyl-6-oxo-1,6-dihydropyridin-3-yl)-4-oxo-1,2,3,4-tetra-hydroquinazoline-7-carbonitrile]
≤ 0.1 µM | Cc1cc(F)ccc1N1CN(c2ccc(=O)[nH]c2C)C(=O)c2cc(F)c(F)cc21 [Example 158, 6,7-difluoro-1-(4-fluoro-2-methylphenyl)-3-(2-methyl-6-oxo-1,6-dihydropyridin-3-yl)-2,3-dihydroquinazolin-4(1H)-one]
≤ 0.1 µM | Cc1[nH]c(=O)ccc1N1CN(c2ccc(F)cc2C(C)C)c2cc(C#N)ccc2C1=O [Example 161, 1-(4-fluoro-2-isopropylphenyl)-3-(2-methyl-6-oxo-1,6-dihydropyridin-3-yl)-4-oxo-1,2,3,4-tetra-hydroquinazoline-7-carbonitrile]
0.126 to 0.631 µM | COc1nc2c(cc1F)C(=O)N(c1ccc(=O)[nH]c1C)CN2c1ccc(F)cc1C [Example 165, 6-fluoro-1-(4-fluoro-2-methylphenyl)-7-methoxy-3-(2-methyl-6-oxo-1,6-dihydropyridin-3-yl)-2,3-dihydropyrido[2,3-d]pyrimidin-4(1H)-one]
≤ 0.1 µM | Cc1cc(F)ccc1N1CN(c2ccc(=O)[nH]c2C)C(=O)c2cc(Cl)c(OC(F)F)cc21 [Example 167, 6-chloro-7-(difluoromethoxy)-1-(4-fluoro-2-methylphenyl)-3-(2-methyl-6-oxo-1,6-dihydropyridin-3-yl)-2,3-dihydroquinazolin-4(1H)-one]
≤ 0.1 µM | Cc1cc(F)ccc1N1CN(c2ccc(=O)[nH]c2C)C(=O)c2cc(Cl)c(C(F)F)cc21 [Example 168, 6-chloro-7-(difluoromethyl)-1-(4-fluoro-2-methylphenyl)-3-(2-methyl-6-oxo-1,6-dihydropyridin-3-yl)-2,3-dihydroquinazolin-4(1H)-one]
≤ 0.1 µM | Cc1cc(OC(F)(F)F)ccc1N1CN(c2ccc(=O)[nH]c2C)C(=O)c2cc(Cl)c(C#N)nc21 [Example 170, 6-chloro-1-(2-methyl-4-(trifluoromethoxy)phenyl)-3-(2-methyl-6-oxo-1,6-dihydropyridin-3-yl)-4-oxo-1,2,3,4-tetra-hydropyrido[2,3-d]pyrimidine-7-carbonitrile]
≤ 0.1 µM | Cc1cc(F)ccc1N1CN(c2ccc(=O)[nH]c2C)C(=O)c2cc(Cl)c(C#N)nc21 [Example 171, 6-chloro-1-(4-fluoro-2-methylphenyl)-3-(2-methyl-6-oxo-1,6-dihydropyridin-3-yl)-4-oxo-1,2,3,4-tetra-hydropyrido[2,3-d]pyrimidine-7-carbonitrile]
≤ 0.1 µM | Cc1cc(OC(F)(F)F)ccc1N1CN(c2ccc(=O)[nH]c2C)C(=O)c2cc(Cl)c(C#N)cc21 [Example 172, 6-chloro-1-(2-methyl-4-(trifluoromethoxy)phenyl)-3-(2-methyl-6-oxo-1,6-dihydropyridin-3-yl)-4-oxo-1,2,3,4-tetra-hydroquinazoline-7-carbonitrile]
≤ 0.1 µM | Cc1cc(F)ccc1N1CN(c2cnc(=O)[nH]c2C)C(=O)c2cc(Cl)c(C#N)cc21 [Example 173, 6-chloro-1-(4-fluoro-2-methylphenyl)-3-(6-methyl-2-oxo-1,2-dihydropyrimidin-5-yl)-4-oxo-1,2,3,4-tetra-hydroquinazoline-7-carbonitrile]
0.126 to 0.631 µM | Cc1[nH]c(=O)ccc1N1CN(c2cccc(Cl)c2C)c2ncc(C(F)(F)F)cc2C1=O [Example 175, 1-(3-chloro-2-methylphenyl)-3-(2-methyl-6-oxo-1,6-dihydropyridin-3-yl)-6-(trifluoromethyl)-2,3-dihydropyrido[2,3-d]pyrimidin-4(1H)-one]
≤ 0.1 µM | CCc1cc(F)ccc1N1CN(c2ccc(=O)[nH]c2C)C(=O)c2cc(C(F)(F)F)cnc21 [Example 176, 1-(2-ethyl-4-fluorophenyl)-3-(2-methyl-6-oxo-1,6-dihydropyridin-3-yl)-6-(trifluoromethyl)-2,3-dihydropyrido[2,3-d]pyrimidin-4(1H)-one]
